Assay [1] deals with Isolated Cat Papillary Muscle. In words: Test for Cardiotonic Activity in Isolated Cat Papillary Muscle. Particulars: Felis catus; for pEC50: increase in force of contraction, stimulated at 0.5 Hz, 37° C.; for activation at 100 µM: read-out: % increase (force of contraction). The assay is classed as cell-based. Here is the method:
Test for Cardiotonic Activity in Isolated Cat Papillary Muscle
A cat of either sex was anesthetized with Na pentobarbital, 25-30 mg/kg i.v. The heart was rapidly removed and placed in cool Tyrode's solution which had been equilibrated with 95% O2 -5% CO2. The right ventricle was opened by cutting down the sides and around the apex so that the free wall could be folded back on the atriventricular groove. Usually at least three suitably-sized papillary muscles were found (1 mm or less in thickness). Threads were tied around the chordae tendonae and the base of the muscle just above its point of insertion into the ventricular wall. The chordae were cut, and the muscle was removed along with a small button of ventricular wall. If a sufficient number of papillary muscles were not present, trabeculae carnae could also be used. The best ones were usually found inserting just under the valve.
The preparations were mounted in tissue baths containing Tyrode's solution at 37° C. bubbled with 95% O2 -5% CO2. One thread was affixed to a tissue holder incorporating a pair of platinum electrodes and the other thread was attached to a force displacement transducer. Initial tension placed on the preparation was 0.2 g (less for very small muscles). The preparations were stimulated with square-wave pulses, 2-4 msec. in duration and 10% above threshold voltage, at a rate of 0.5 Hz. […] The preparations were then allowed to equilibrate for one hour with frequent changes of the bathing fluid (10-15 min. intervals). The test compound was added to the bath in 0.1 mL of vehicle and incubated with the preparation for 15 min. or until peak effect was attained.
Using this method, the following representative compounds of formula I were effective for increasing the force of contraction of the papillary muscle.

The test system of assay [2] is Pentobarbital-Induced Cardiac Failure in the Dog. The assay can be described thus: Pentobarbital-induced Cardiac Failure in the Dog. It counts as in vivo. Particulars: Canis lupus familiaris, iv, anesthetized dog, read-out: ED50 (dose i.v. to give a 50% increase in dP/dt). Here is the method: Pentobarbital-induced Cardiac Failure in the Dog
A dog of either sex was anesthetized with Na pentobarbital, 30-35 mg/kg i.v. The trachea was intubated and the animal was respired at a rate of 20 breaths/min (stroke volume=15 cc/kg). Both femoral veins were cannulated. One cannula was used for infusion of pentobarbital to induce and maintain failure, the other for injection of test compounds. A cannual was inserted into the aorta via a femoral artery and the cannula was attached to a blood pressure transducer for measurement of systolic, diastolic and mean aortic blood pressure. A Millar pressure-tip catheter was inserted into the other femoral artery and advanced into the left ventricle to record intraventricular pressure and dP/dt. Subdermal needle electrodes were used to record a lead II electrocardiogram and heart rate.
Following a stabilization period of at least 30 min, experimental failure was induced by the i.v. infusion of Na pentobarbital, 0.75 mg/kg/min in 0.2 mL of saline/min, until a 40-50% decrease in peak positive dP/dt was obtained. The failure state was maintained at this level throughout the experiment by continuous infusion of Na pentobarbital, 0.11-0.15 mg/kg/min. Once the maintenance infusion was started, at least 15 min were allowed to elapse before test drugs were administered.
Test compounds were prepared in N saline. Increasingly higher doses were given i.v. at 30 min-1 hr intervals in order to determine a therapeutic (50% increase in dP/dt) to toxic (appearance of arrhythmias) ratio where possible.
Using this method, the following representative compounds of formula I were effective for increasing the cardiac contractility of the heart (the amount of test compound in mg per kg of body weight administered i.v. to give a 50% increase in dP/dt.

The term pEC50 denotes the negative decadic logarithm of the EC50, by convention in mol/L. A higher pEC50 goes with a low EC50.

pEC50: −log10 of the molar value. Where two headings read alike, the source gives them in different places.

`Cc1nc(O)c(Br)c(NCc2cccnc2)n1` [Example 1, 5-Bromo-2-methyl-6-[(3-pyridinylmethyl)amino]-4-pyrimidinol] had a pEC50 in assay [1] of 5.60. Further, the ED50 in assay [2] came to 0.012 mg/kg. `Cc1nc(=O)c(C)c(NCCc2cccn2C)[nH]1` [Example 2, 1,4-Dihydro-2,5-dimethyl-6-[[2-(1-methyl-1H-pyrrol-2-yl)ethyl]amino]-4-pyrimidinone] showed a pEC50 in assay [1] of 5.54. In assay [1], `Cc1nc(O)c(Cl)c(NCc2cccnc2)n1` [Example 3, 5-Chloro-2-methyl-6-[(3-pyridinylmethyl)amino]-4-pyrimidinol] gave a pEC50 of 6.00. Moreover, in assay [2], the ED50 was determined as 0.02 mg/kg.

In the case of `Cc1nc(O)c(Cl)c(NCCc2ccccc2)n1` [Example 4, 5-Chloro-2-methyl-6-[(2-phenylethyl)amino]-4-pyrimidinol], the pEC50 in assay [1] was 5.82. Also, in assay [2], the ED50 is 0.04 mg/kg. `Cc1nc(=O)c(C)c(NCc2cccnc2)[nH]1` [Example 5, 1,4-Dihydro-2,5-dimethyl-6-[(3-pyridinylmethyl)amino]-pyrimidine-4-one] gave a pEC50 in assay [1] of 4.96. Besides, the ED50 in assay [2] came out at 0.05 mg/kg. For the molecule `Cc1nc(=O)c(F)c(NCc2cccnc2)[nH]1` [Example 6, 5-Fluoro-1,4-dihydro-2-methyl-6-[(3-pyridinylmethyl)amino]-4-pyrimidinone], the activation at 100 µM in assay [1] (at 10^-4 M) turned out to be 69%. The molecule `Cc1nc(O)c(C(C)C)c(NCc2cccnc2)n1` [Example 7, 2-Methyl-5-(1-methylethyl)-6-[(3-pyridinylmethyl)amino]-4-pyrimidinol] gave a negative-log EC50 (pEC50) in assay [1] of 5.13. Besides, the ED50 in assay [2] was 0.13 mg/kg. `Cc1nc(O)c(C)c(NCCc2ccncc2)n1` [Example 8, 2,5-Dimethyl-6-[(2-(4-pyridinyl)ethyl)amino]-4-pyrimidinol]: the activation at 100 µM in assay [1] (at 10^-4 (unit inferred)) was found to be 52%. The molecule `Cc1nc(O)c(Br)c(NCCc2ccccc2)n1` [Example 9, 5-Bromo-2-methyl-6-[(2-phenylethyl)amino]-4-pyrimidinol] had a pEC50 in assay [1] (unit inferred) of 4.89. Also, the ED50 in assay [2] is 0.03 mg/kg.

`Cc1nc(O)c(Br)c(NCCc2ccncc2)n1` [Example 10, 5-Bromo-2-methyl-6-[[2-(4-pyridinyl)ethyl]amino]-4-pyrimidinol] showed a pEC50 in assay [1] (unit inferred) of 3.60. In turn, `Cc1nc(O)c(C)c(NCc2ccco2)n1` [Example 11, 6-[(2-Furanylmethyl)amino]-2,5-dimethyl-4-pyrimidinol] gave a negative-log EC50 (pEC50) in assay [1] of 5.00. With `CCNc1nc(C)nc(O)c1C` [Example 12, 6-(Ethylamino)-2,5-dimethyl-4-pyrimidinol], the negative logarithm of the EC50 (pEC50) in assay [1] is 5.30. Moreover, the ED50 in assay [2] was found to be 0.04 mg/kg.

`Cc1nc(O)c(C)c(NCC2CC2)n1` [Example 13, 6-[(Cyclopropylmethyl)amino]-2,5-dimethyl-4-pyrimidinol] gave a negative logarithm of the EC50 (pEC50) in assay [1] of 5.43. For the same molecule, the ED50 in assay [2] was determined as 0.05 mg/kg.

As to `CCNc1nc(C)nc(O)c1C(C)C` [Example 14, 6-(Ethylamino)-2-methyl-5-(1-methylethyl)-4-pyrimidinol], in assay [1] (at 10^-4 M), the activation at 100 µM was found to be 86%. In assay [2], the ED50 amounted to 0.04 mg/kg. Consider `CCNc1[nH]c(C)nc(=O)c1Br` [Example 15, 5-Bromo-1,4-dihydro-6-(ethylamino)-2-methyl-4-pyrimidinone], for which the negative-log EC50 (pEC50) in assay [1] is 5.55. Further, the ED50 in assay [2] was 0.01 mg/kg. In assay [1], `Cc1nc(O)c(Br)c(NCCO)n1` [Example 16, 5-Bromo-6-[(2-hydroxyethyl)amino]-2-methyl-4-pyrimidinol] gave a pEC50 of 5.09. For `Cc1nc(O)c(C(C)C)c(NCC2CC2)n1` [Example 17, 6-[(Cyclopropylmethyl)amino]-2-methyl-5-(1-methylethyl)-4-pyrimidinol], in assay [1] (at 10^-4 M), the activation at 100 µM is 185%. For the same molecule, the ED50 in assay [2] is 0.5 mg/kg.

The values are drawn from US4617393A, “5-substituted-6-aminopyrimidines, composition and uses as cardiotonic agents for increasing cardiac contractility” (American Home Products Corporation, priority 1985, dated 1986).
